In a compilation of properties of binary mixtures (doi:10.1007/s10953-008-9260-8):

Experiment: xn = mol fraction of the nth substance listed
Settings: 101 kPa

CCCC[n+]1ccn(C)c1.COS(=O)(=O)[O-] + CCCC[n+]1ccn(C)c1.F[B-](F)(F)F
viscosity [mPa·s]
Settings	298.15 K	299.15 K	301.15 K	302.15 K	303.15 K	304.15 K	305.15 K	307.15 K	308.15 K
x2 = 0	215	–	181.2	–	162.3	156.8	145.7	131.2	124.5
x2 = 0.1209	192.5	–	–	153.9	145.8	138.2	–	118.2	–
x2 = 0.2142	188.2	177.6	–	147	142.2	134.8	–	115.2	109.5
x2 = 0.3057	180.2	170.3	152.3	–	136.7	–	123.2	111.2	105.9
x2 = 0.406	168.1	160.7	142.4	135	–	121.4	115	104	–
x2 = 0.4358	–	151.3	–	129.3	122.4	116	110	–	94.5
x2 = 0.5118	–	147.4	132.1	125.1	–	112.7	107	96.8	92
x2 = 0.5412	149.5	143.6	128.6	–	115.8	–	104	93.9	89.6
x2 = 0.6026	–	138.4	124.1	–	111.4	105.7	–	–	86.8
x2 = 0.648	141.6	133.8	120	–	108	102.4	97.1	87.8	83.6
x2 = 0.6934	137.5	130	–	110.8	105.1	–	95.1	86.2	82
x2 = 0.7813	128.4	121.5	–	103.9	98.7	93.8	89.3	81.2	77.4
x2 = 0.9005	117.6	111.5	100.7	96	90.7	86.9	–	75.4	72.6
x2 = 0.9447	–	105.3	95.1	90.7	86.2	82	–	71.1	–
